# According to patent US7105310B1, “Detection of biomolecules by sensitizer-linked substrates” (California Institute of Technology, priority 2000, dated 2006):
# Several values for one entry are separate records, joined by “and”; a condition that tells them apart may be missing. Equal entries are not always repeated.
# Legend:
# [1] = biological target: T1, cytochrome P450cam (Pseudomonas putida, UniProt P00183, C335A); conditions: untethered control complexes
# [2] = tested on: nNOS; conditions: cited from earlier work
# [3] = tested on: eNOS; conditions: cited from earlier work
# [4] = tested on: iNOS; conditions: cited from earlier work
# [5] = biological target: T1, cytochrome P450cam; test: biochemical
# Protocol: A Hewlett Packard 8452A spectrophotometer was used to collect UV-vis data. Buffer conditions were 50 mM potassium phosphate, 100 mM potassium chloride, pH 7.4 for all protein solutions (˜5 μM P450). […] Thus, affinities were determined by the ability of these complexes to inhibit the low- to high-spin transition produced by camphor. […] The concentration of ethanol never exceeded 1% of the total volume. […] Absorbance changes were recorded at 392 and 416 nm. […] By definition, KD=Kcam/KI, where Kcam is the dissociaton constant of camphor (in the absence of Ru-substrate), and KI is the equilibrium constant between camphor- and ruthenium-bound P450, spectroscopically determined by measuring the dissociation constant of camphor at multiple Ru concentrations. Luminescence experiments measure KD directly.
# [6] = biological target: T2, cytochrome P450cam (Pseudomonas putida, UniProt P00183); conditions: for rate of hydroxylation (NADH consumption): NADH/PdR/Pd/P450, 1 μM P450, 20 °C
# Protocol: Two cycles of acetonitrile (5 mL) addition, decanting, and rotary evaporation were performed to separate the buffer salts from the ruthenated species. The ruthenium concentration was quantified by UV-vis (ε456=14,500 M^−1 cm^−1).
# Each solution was injected three different times, with intermediary blank runs of pure acetonitrile. Relative peak intensities were determined using analysis software, which deconvolved the spectra to assign one singly charged peak to each compound. […] This information was crucial in quantifying hydroxylated product yields relative to starting material in the analysis of subsequent turnover experiments.
# The oxygen electrode was calibrated at 20° C. (linear response with [O2], 0–100% O2), and connected to a LeCroy oscilloscope interfaced to a PC using freely available LeCroy software (LeCroy, Chestnut Ridge, N.Y.). The O2 electrode (3 mm diameter with Teflon casing) was pushed through a septum, which formed an airtight seal with the mouth of a standard 1 cm pathlength cuvette. […] All UV-vis experiments were conducted with stirred samples at 20° C. […] Experiments were initiated upon addition of 200 μM NADH, and absorbance at 340 nm was measured simultaneously with O2 consumption.
# The consumption of NADH was monitored at 340 nm by UV-vis spectroscopy and O2 consumption monitored with the microelectrode. Once all of the NADH was consumed, a known amount of 3-endo-bromo-camphor was added, and the mixture was extract three times with an equal volume of methylene chloride. The organic extract was concentrated by evaporation and analyzed by GC.
# [7] = biological target: T3, P450:Ru complex (Pseudomonas putida, UniProt P00183); test: Camphor titration into stoichiometric P450:Ru—C10 (UV-vis); type: binding
# T3 construct: made in house
# T3 sequence (P00183 2-415 limits assumed): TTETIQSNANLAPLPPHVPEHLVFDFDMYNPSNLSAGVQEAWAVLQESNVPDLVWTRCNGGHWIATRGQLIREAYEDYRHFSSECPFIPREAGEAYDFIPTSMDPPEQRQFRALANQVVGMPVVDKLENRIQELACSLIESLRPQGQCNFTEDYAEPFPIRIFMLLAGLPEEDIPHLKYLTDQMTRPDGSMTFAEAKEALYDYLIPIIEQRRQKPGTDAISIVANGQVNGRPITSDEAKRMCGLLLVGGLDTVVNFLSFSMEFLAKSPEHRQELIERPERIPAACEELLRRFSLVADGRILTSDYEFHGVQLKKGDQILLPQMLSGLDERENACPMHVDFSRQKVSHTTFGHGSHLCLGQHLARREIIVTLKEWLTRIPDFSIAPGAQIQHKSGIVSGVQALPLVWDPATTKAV
# [8] = biological target: T4, P450 (Pseudomonas putida, UniProt P00183); conditions: cited from earlier work
# T4 construct: made in house; host or cells: E. coli
# T4 sequence (P00183 1-415): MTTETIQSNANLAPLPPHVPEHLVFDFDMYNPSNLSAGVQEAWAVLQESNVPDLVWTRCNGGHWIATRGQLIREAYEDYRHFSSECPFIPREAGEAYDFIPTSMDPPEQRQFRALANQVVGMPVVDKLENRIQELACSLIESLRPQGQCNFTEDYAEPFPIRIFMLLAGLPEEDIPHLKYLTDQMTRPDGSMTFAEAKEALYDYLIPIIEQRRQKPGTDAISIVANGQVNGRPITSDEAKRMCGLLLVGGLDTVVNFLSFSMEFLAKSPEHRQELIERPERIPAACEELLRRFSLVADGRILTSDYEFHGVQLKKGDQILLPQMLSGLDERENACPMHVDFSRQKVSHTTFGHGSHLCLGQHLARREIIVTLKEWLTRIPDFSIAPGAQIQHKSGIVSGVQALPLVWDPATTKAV
# [9] = biological target: Asp251Asn (Pseudomonas putida, UniProt P00183, D252N); conditions: decreases above 15° C.; cited from earlier work
# [10] = biological target: T2, cytochrome P450cam; conditions: cited from earlier work
# [11] = biological target: T5, P450cam (Pseudomonas putida, UniProt P00183); test: Binding of [Ru(phen)2dppa]-adamantyl probes to P450; conditions: Example VI
# T5 construct: made in house; host or cells: E. coli
# T5 sequence (P00183 1-415): T4 sequence (P00183 1-415)
# Protocol: (§1) Electrospray mass spec. data was collected on a Finnigan LCQ quadrupole ion trap mass spectrometer.
# (§2) P450 was stored in small aliquots and thawed immediately before use. Samples were prepared in 50 mM Kphos buffer containing 100 mM KCl. P450 concentration was quantified using the heme soret absorption at 416.5 nm (115,000 M^−1 cm^−1). Samples were prepared in a custom quartz cuvette fitted with a Kontes Teflon stopcock. Oxygen was removed from the sample by completing at least 30 cycles of partial vacuum followed by an influx of argon.
# [12] = biological target: T4, P450; test: Steady-state luminescence of Ru-dppa probes in acetonitrile, buffer and buffer with P450; conditions: for integrated luminescence intensity with P450 as % of value in acetonitrile: buffer in the presence of P450
# Protocol: as §1, §2
# The luminescence of compounds 1–3 was examined in acetonitrile, potassium phosphate buffer, and buffer in the presence of P450 (as described above). […] The complexes 2 and 3 show modest recoveries of luminescence, with integrated intensities that are 2.6 and 5.2% of their values in acetonitrile (FIG. 49). The luminescence from 3 is approximately 20 fold greater in the presence of P450 than in buffer alone.
# [13] = tested on: six heme proteins (yeast cytochrome c, horse skeletal muscle myoglobin, bovine lipase cytochrome b5, bovine liver catalase, recombinant yeast cytochrome c …); test: Emission decay of Ru-substrate in presence of other heme proteins; conditions: […] Ru—C9-Ad, 50 mM sodium phosphate pH 7; monophasic = no binding
# [14] = tested on: NOS; conditions: cited from earlier work
compound,measurement,setting,value
"[Cl-].[Cl-].[Ru+2].c1ccc(-c2ccccn2)nc1.c1ccc(-c2ccccn2)nc1.c1ccc(-c2ccccn2)nc1 [[Ru(bpy)3]^2+, Tris(2,2′-bipyridine)ruthenium(II) chloride]",quenching upon addition of P450,[1],not quenched
CC(=N)NCc1cccc(CN)c1 [1400W],type of inhibition,[2],"weak, reversible inhibitor"
same,type of inhibition,[3],"weak, reversible inhibitor"
same,type of inhibition,[4],irreversible inhibitor
CC12CCC(CC1=O)C2(C)C (stereo not shown) [camphor],Kd,"[5]; dissociation constant of camphor (KS, Kcam), P450 alone, no Ru-substrate, 50 mM potassium phosphate, 100 mM KCl, pH 7.4, 20 °C",3 µM and 3.1 µM
same,rate of hydroxylation (NADH consumption),[6],~600 μmol NADH/min/μmol P450
same,Kd,[7],3.6 ± 0.2 µM
same,Kd,"[8]; comparison value, read-out: KD of camphor (natural substrate)",~1 µM and 1.6 µM
same,"association constant for camphor (In Keq), WT P450",[8]; decreases below 15° C.,~14.2
same,"association constant for camphor (In Keq), Asp251Asn",[9],~14.2
same,coupling of hydroxylation reaction,[10],~100%
D-Phe-D-ArgNO2—OMe,dissociation constant,[2],micromolar
same,dissociation constant,[3],micromolar
same,Kd,[4],3600 µM
NC(=O)CC12CC3CC(CC(C3)C1)C2 [1-adamantylacetamide],"rate of hydroxylation, literature value",[10]; literature,~110 μmol NADH/min/μmol P450
Ru(phen)2dppa-C6-Ad [compound 1],Kd,[11],0.25 µM
same,luminescence increase over background,[12],did not show a significant increase in luminescence
NC(=O)CC1C2CC3CC(C2)CC1C3 (stereo not shown) [2-adamantylacetamide],spin conversion at the heme,[5],full low to high spin conversion
same,conversion of heme to high-spin species on binding,[5]; ferric-aquo P450,95%
same,yield of hydroxylated product based on NADH (product formation/NADH consumption),[6],47±3%
same,rate of hydroxylation (NADH consumption),[6],90±20 μmol NADH/min/μmol P450
[Ru(bpy)2(bpy-C9-Ad)]Cl2 [Ru—C9-Ad],effective product yield based on background oxidase activity,[6],40%
same,yield of hydroxylated product based on NADH (product formation/NADH consumption),[6],10%
same,rate of hydroxylation (NADH consumption),[6],10±2 μmol NADH/min/μmol P450 and 8 μmol NADH/min/μmol P450
same,emission decay profile in presence of six heme proteins,[13],monophasic
"N=C(NCCC[C@H](N)C(=O)O)N[N+](=O)[O-] [NMA, N^ω-nitro-arginine]",inhibition of NOS,[14],"good, but non-specific inhibitor"
Ru(phen)2dppa-gly-adm [compound 2],Kd,[11],2.4 µM
same,integrated luminescence intensity with P450 as % of value in acetonitrile,[12],2.6%
Ru(phen)2dppa-adm [compound 3],Kd,[11],0.18 µM
same,quantum yield bound to P450,[12]; based on reported quantum yield of [Ru(phen)2dppz]2+ in aerated acetonitrile,0.00038
same,integrated luminescence intensity with P450 as % of value in acetonitrile,[12],5.2%
